Data on 47 compounds can be found in patent US20260008768A1, “UREA DERIVATIVES FOR INHIBITING NLRP3 AND USES THEREOF” (VENTUS THERAPEUTICS U.S., INC., priority 2023, published 2026).

The experiment has as its target human NLRP3 (Homo sapiens, UniProt Q96P20). Briefly: Scintillation Proximity (SPA) NLRP3 Assay, displacement of 3H-MCC950. The class given is binding. The note with it: Table B, activity class; displacement of 3H-MCC950 from human NLRP3. The procedure: Improved NLRP3 binding correlates with increased affinity for NLRP3 protein and, by extension, increased ability to interfere with its function.
SPA experiments were conducted in a total volume of 20 μL assay buffer containing 20 mM HEPES pH 7.5, 150 mM NaCl, 5 mM MgCl2, 0.01% (v/v) Tween-20, 0.01% (w/v) bovine serum albumin (BSA) and 100 μM of adenosine diphosphate (ADP). A human NLRP3 protein (350 nM) (see, e.g., Sharif et al., Nature (2019) 570:338-343; Hochheiser et al., Nature (2022) 604:184-189; Adreeva et al., Cell (2021) 184:6299-6312; Wang et al., J Exp. Med. (2021) 219:e20211147) was incubated with various concentration of compounds in 5% dimethyl sulfoxide (DMSO) final for 15 minutes at room temperature in a white half-area 96 well OptiPlate (PerkinElmer #6002290) before adding 125 nM final of 3H-MCC950. After the addition of radiolabeled MCC950, the plate was incubated for 60 minutes at room temperature before adding 0.25 mg/ml of copper-coated polyvinyltoluene SPA beads (PerkinElmer #RPNQ0095). The plate was then transferred to a microplate counter (PerkinElmer 2450 Microbeta) to collect binding data. Binding data was analyzed 6 hrs post-PVT bead addition to allow sufficient time to reach equilibrium. Specific binding was calculated from averaged duplicates by subtracting signal from wells without NLRP3 protein.
SPA NLRP3 IC50 assay results are provided in Table B. “A” activity=<1 uM; “B” activity=1-10 uM; “C” activity=>10-50 uM; “D” activity=>50 uM-100 uM; and “E” activity=>100 uM.
In general terms: Scintillation proximity formats need no separation of bound from free tracer.

human NLRP3, sequence (Q96P20 whole entry): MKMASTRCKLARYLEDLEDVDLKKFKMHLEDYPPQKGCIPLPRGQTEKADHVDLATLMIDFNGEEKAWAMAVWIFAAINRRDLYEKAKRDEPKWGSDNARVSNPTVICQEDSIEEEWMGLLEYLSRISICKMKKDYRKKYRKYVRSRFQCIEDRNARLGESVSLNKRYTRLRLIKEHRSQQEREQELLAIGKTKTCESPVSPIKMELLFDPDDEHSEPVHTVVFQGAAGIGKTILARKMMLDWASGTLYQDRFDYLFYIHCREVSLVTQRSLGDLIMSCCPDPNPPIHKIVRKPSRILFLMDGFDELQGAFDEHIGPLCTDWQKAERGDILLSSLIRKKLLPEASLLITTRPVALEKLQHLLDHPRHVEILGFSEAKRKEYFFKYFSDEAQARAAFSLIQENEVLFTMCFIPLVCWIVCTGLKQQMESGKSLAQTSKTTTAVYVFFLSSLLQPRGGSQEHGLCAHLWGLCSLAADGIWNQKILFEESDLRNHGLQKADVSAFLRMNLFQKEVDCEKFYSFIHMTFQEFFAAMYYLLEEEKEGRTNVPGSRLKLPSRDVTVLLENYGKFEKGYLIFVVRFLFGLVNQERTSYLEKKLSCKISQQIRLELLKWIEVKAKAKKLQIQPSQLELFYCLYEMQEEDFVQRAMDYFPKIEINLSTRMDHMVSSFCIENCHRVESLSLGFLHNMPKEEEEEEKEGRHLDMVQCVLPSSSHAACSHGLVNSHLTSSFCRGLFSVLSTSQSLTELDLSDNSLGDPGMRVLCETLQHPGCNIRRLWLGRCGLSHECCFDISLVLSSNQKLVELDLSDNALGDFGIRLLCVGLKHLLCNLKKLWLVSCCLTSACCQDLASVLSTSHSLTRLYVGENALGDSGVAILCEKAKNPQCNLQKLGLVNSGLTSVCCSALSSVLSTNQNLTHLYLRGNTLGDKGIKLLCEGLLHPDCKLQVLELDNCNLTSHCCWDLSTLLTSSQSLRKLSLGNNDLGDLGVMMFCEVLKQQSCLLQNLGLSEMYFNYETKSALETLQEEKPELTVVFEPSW

As usually defined, the IC50 is the concentration at which inhibition is half-maximal. `C[C@@H]1C[C@H](NC(=O)N(C)c2ccc(OC(F)(F)F)cc2)[C@H]2CC[C@@H]1N2c1nnn[nH]1` (single isomer, unassigned) [45B*] returned an IC50 of 10 to 50 µM.

The compound `C[C@H]1C[C@@H](NC(=O)N(C)c2ccc(OC(F)F)cc2)[C@@H]2CC[C@H]1N2c1nnn[nH]1` (single isomer, unassigned) [42C*] returned an IC50 of more than 100 µM.

The compound `C[C@@H]1C[C@H](NC(=O)N(C)c2ccc(OC(F)F)cc2F)[C@H]2CC[C@@H]1N2c1nnn[nH]1` (single isomer, unassigned) [57B*] yielded an IC50 of more than 100 µM.

`C[C@H]1C[C@@H](NC(=O)N(C)c2ccc(OC(F)(F)F)c(OC(F)F)c2)[C@@H]2CC[C@H]1N2c1nnn[nH]1` (single isomer, unassigned) [63C*] displayed an IC50 of 50 to 100 µM.

Compound `C[C@H]1CCN(c2nnn[nH]2)C[C@@H](NC(=O)N(C)c2ccc(OC(F)F)cc2F)C1` (single isomer, unassigned) [17D*] had an IC50 of more than 100 µM.

`C[C@@H]1C[C@H](NC(=O)N(C)c2ccc(C(F)(F)F)cc2F)[C@H]2CC[C@@H]1N2c1nnn[nH]1` (single isomer, unassigned) [48B*] returned an IC50 of more than 100 µM.

As to `C[C@H]1CCN(c2nnn[nH]2)C[C@@H](NC(=O)N(C)c2cnc(C(F)(F)F)cn2)C1` (single isomer, unassigned) [32D*], the IC50 was in the range of 50 to 100 µM.

The compound `C[C@H]1CCN(c2nnn[nH]2)C[C@@H](NC(=O)N(C)c2c(F)cc(OC(F)F)cc2F)C1` (single isomer, unassigned) [19D*] yielded an IC50 of 1 to 10 µM.

On to `C[C@H]1C[C@H](NC(=O)N(C)c2ccc(OC(F)F)c(F)c2F)[C@@H]2CC[C@H]1N2c1nnn[nH]1` (single isomer, unassigned) [58D*], for which the IC50 fell in the range of 10 to 50 µM.

Turning to `C[C@@H]1C[C@H](NC(=O)N(C)c2ccc(C(F)(F)F)c(F)c2F)[C@H]2CC[C@@H]1N2c1nnn[nH]1` (single isomer, unassigned) [47B*], the IC50 is 50 to 100 µM.

`C[C@@H]1CCN(c2nnn[nH]2)C[C@@H](NC(=O)N(C)c2ccc(C(F)(F)F)nn2)C1` (single isomer, unassigned) [33B*] showed an IC50 of 50 to 100 µM.

In turn, `C[C@@H]1CCN(c2nnn[nH]2)C[C@@H](NC(=O)N(C)c2ccc(C(F)F)c(F)c2)C1` (single isomer, unassigned) [22B*] showed an IC50 of 1 to 10 µM.

Regarding `C[C@H]1CCN(c2nnn[nH]2)C[C@@H](NC(=O)N(C)c2ccc(Cl)nc2)C1` (single isomer, unassigned) [29D*], the IC50 was 10 to 50 µM.

For the compound `C[C@@H]1CCN(c2nnn[nH]2)C[C@@H](NC(=O)N(C)c2ccc(OC(F)(F)F)cc2F)C1` (single isomer, unassigned) [24B*], the IC50 lay within 1 to 10 µM.

The compound `C[C@H]1CCN(c2nnn[nH]2)C[C@H](NC(=O)N(C)c2ccc(OC(F)F)cc2)C1` (single isomer, unassigned) [11C*] returned an IC50 of 50 to 100 µM.

Turning to `C[C@@H]1C[C@H](NC(=O)N(C)c2ccc(OC(F)(F)F)c(F)c2)[C@H]2CC[C@@H]1N2c1nnn[nH]1` (single isomer, unassigned) [51B*], the IC50 was in the range of 50 to 100 µM.

Consider `C[C@@H]1C[C@@H](NC(=O)N(C)c2ccc(Cl)c(F)c2)[C@H]2CC[C@@H]1N2c1nnn[nH]1` (single isomer, unassigned) [50A*], for which the IC50 is 1 to 10 µM.

Consider `C[C@H]1C[C@@H](NC(=O)N(C)c2ccc(C(F)(F)F)cc2F)[C@@H]2CC[C@H]1N2c1nnn[nH]1` (single isomer, unassigned) [48C*], for which the IC50 was in the range of 50 to 100 µM.

As for `C[C@@H]1C[C@H](NC(=O)N(C)c2c(F)cc(OC(F)F)cc2F)[C@H]2CC[C@@H]1N2c1nnn[nH]1` (single isomer, unassigned) [61B*], the IC50 was more than 100 µM.

Take `C[C@@H]1C[C@H](NC(=O)N(C)c2ccc(C(F)F)c(F)c2)[C@H]2CC[C@@H]1N2c1nnn[nH]1` (single isomer, unassigned) [53B*]: the IC50 was more than 100 µM.

In the case of `C[C@H]1CCN(c2nnn[nH]2)C[C@@H](NC(=O)N(C)c2ccc(C(F)(F)F)nn2)C1` (single isomer, unassigned) [33D*], the IC50 fell in the range of 50 to 100 µM.

In the case of `C[C@H]1C[C@@H](NC(=O)N(C)c2ccc(OC(F)(F)F)cc2)[C@@H]2CC[C@H]1N2c1nnn[nH]1` (single isomer, unassigned) [45C*], the IC50 was 50 to 100 µM.

`C[C@H]1CCN(c2nnn[nH]2)C[C@H](NC(=O)N(C)c2ccc(Cl)cn2)C1` (single isomer, unassigned) [28C*] had an IC50 of 50 to 100 µM.

The compound `C[C@@H]1CCN(c2nnn[nH]2)C[C@@H](NC(=O)N(C)c2ccc(Cl)cc2F)C1` (single isomer, unassigned) [5B*] had an IC50 of 1 to 10 µM.

`CC1CCN(c2nnn[nH]2)CC(NC(=O)N(C)c2cnc(C(F)(F)F)nc2)C1` (single isomer, unassigned) [31C*] came in with an IC50 of 10 to 50 µM.

`C[C@H]1CCN(c2nnn[nH]2)C[C@@H](NC(=O)N(C)c2c(F)cc(C3CC3)cc2F)C1` (single isomer, unassigned) [20D*] displayed an IC50 of 1 to 10 µM.

The compound `C[C@@H]1CCN(c2nnn[nH]2)C[C@@H](NC(=O)N(C)c2ncc(C(F)(F)F)cn2)C1` (single isomer, unassigned) [30B*] gave an IC50 of more than 100 µM.

The compound `C[C@H]1CCN(c2nnn[nH]2)C[C@@H](NC(=O)N(C)c2ccc(OC(F)(F)F)cc2F)C1` (single isomer, unassigned) [24D*] registered an IC50 of 1 to 10 µM.

With `C[C@H]1CCN(c2nnn[nH]2)C[C@H](NC(=O)N(C)c2ccc(OC(F)(F)F)cc2)C1` (single isomer, unassigned) [10C*], the IC50 is more than 100 µM.

As for `C[C@@H]1CCN(c2nnn[nH]2)C[C@@H](NC(=O)N(C)c2ccc(OC(F)F)cc2F)C1` (single isomer, unassigned) [17B*], the IC50 was in the range of 1 to 10 µM.

Take `C[C@H]1CCN(c2nnn[nH]2)C[C@H](NC(=O)N(C)c2ccc(OC(F)(F)F)c(F)c2)C1` (single isomer, unassigned) [14C*]: the IC50 is more than 100 µM.

For the compound `C[C@H]1C[C@H](NC(=O)N(C)c2c(F)cc(OC(F)(F)F)cc2F)[C@@H]2CC[C@H]1N2c1nnn[nH]1` (single isomer, unassigned) [62D*], the IC50 fell in the range of 50 to 100 µM.

In the case of `C[C@H]1CCN(c2nnn[nH]2)C[C@H](NC(=O)N(C)c2ccc(C(F)F)cc2F)C1` (single isomer, unassigned) [18C*], the IC50 fell in the range of 10 to 50 µM.

`C[C@H]1C[C@@H](NC(=O)N(C)c2ccc3cnoc3c2)CN(c2nnn[nH]2)C1` [Compound 38A, 1-(benzo[d]isoxazol-6-yl)-1-methyl-3-((3R,5S)-5-methyl-1-(1H-tetrazol-5-yl)piperidin-3-yl)urea] gave an IC50 of 10 to 50 µM.

In turn, `C[C@H]1CCN(c2nnn[nH]2)C[C@H](NC(=O)N(C)c2c(F)cc(OC(F)F)cc2F)C1` (single isomer, unassigned) [19C*] registered an IC50 of more than 100 µM.

In turn, `C[C@H]1C[C@H](NC(=O)N(C)c2c(F)cc(C3CC3)cc2F)[C@@H]2CC[C@H]1N2c1nnn[nH]1` (single isomer, unassigned) [60D*] gave an IC50 of 1 to 10 µM.

Turning to `C[C@H]1CCN(c2nnn[nH]2)C[C@@H](NC(=O)N(C)c2ccc(OC(F)(F)F)cc2)C1` (single isomer, unassigned) [10D*], the IC50 lay in the range of 1 to 10 µM.

`C[C@@H]1CCN(c2nnn[nH]2)C[C@@H](NC(=O)N(C)c2cnc(C(F)(F)F)cn2)C1` (single isomer, unassigned) [32B*] gave an IC50 of 50 to 100 µM.

Take `C[C@H]1CCN(c2nnn[nH]2)C[C@H](NC(=O)N(C)c2ccc(C(F)(F)F)c(F)c2F)C1` (single isomer, unassigned) [21C*]: the IC50 was more than 100 µM.

`C[C@@H]1C[C@H](NC(=O)N(C)c2ccc(Cl)c(F)c2)[C@H]2CC[C@@H]1N2c1nnn[nH]1` (single isomer, unassigned) [50B*] gave an IC50 of more than 100 µM.

In turn, `C[C@H]1C[C@H](NC(=O)N(C)c2ccc(C(F)(F)F)cc2F)[C@@H]2CC[C@H]1N2c1nnn[nH]1` (single isomer, unassigned) [48D*] showed an IC50 of 10 to 50 µM.

Take `C[C@H]1CCN(c2nnn[nH]2)C[C@@H](NC(=O)N(C)c2ccc(OC(F)(F)F)c(F)c2F)C1` (single isomer, unassigned) [26D*]: the IC50 fell in the range of 10 to 50 µM.

As for `C[C@H]1C[C@@H](NC(=O)N(C)c2ccc(C3CC3)c(F)c2)[C@@H]2CC[C@H]1N2c1nnn[nH]1` (single isomer, unassigned) [54C*], the IC50 was more than 100 µM.

`C[C@H]1C[C@H](NC(=O)N(C)c2ccc(OC(F)(F)F)cc2F)[C@@H]2CC[C@H]1N2c1nnn[nH]1` (single isomer, unassigned) [56D*] returned an IC50 of 1 to 10 µM.

`C[C@H]1CCN(c2nnn[nH]2)C[C@@H](NC(=O)N(C)c2ccc(C(F)F)c(F)c2)C1` (single isomer, unassigned) [22D*] registered an IC50 of 1 to 10 µM.

Compound `C[C@H]1C[C@@H](NC(=O)N(C)c2c(F)cc(OC(F)F)cc2F)[C@@H]2CC[C@H]1N2c1nnn[nH]1` (single isomer, unassigned) [61C*] returned an IC50 of more than 100 µM.

`C[C@H]1CCN(c2nnn[nH]2)C[C@H](NC(=O)N(C)c2ccc(C(F)F)c(F)c2)C1` (single isomer, unassigned) [22C*] displayed an IC50 of 10 to 50 µM.
